Source: patent publication US4216221A, “1,3-Disubstituted (2-thio)ureas” (U C B, Societe Anonyme, priority 1977, dated 1980)
Read-outs that look alike come from different tables or passages of the source.

Key:
[1] = Toxicity by intraperitoneal administration (Irwin's test); assay type: in vivo; settings: for Dose mg/kg (dose which brings about the death of one animal out of eight in Irwin's test): mouse
Description: The compounds tested have a remarkably low toxicity.
*Dose which brings about the death of one animal out of eight in Irwin's
test (S. IRWIN, Gordon Research Conference on Medicinal Chemistry, Colby
Junior College, New London, 1959).

[2] = spinal fixation time (spinal section 35 minutes after onset of asymmetry); assay type: in vivo, rat
Description: (b) The action on mnemic processes is also shown by the reduction of the spinal fixation time, a test which has been described in literature (T. J. CHAMBERLAIN et al., J.Neuro-Physiol.26, (1963,no. 4), 662-673; C. GIURGEA and F. MOURAVIEFF-LESUISSE, Arch.Int.Pharmacodyn.Therap.191, (1971,no. 2), 279) as an elementary memory model and which provides pharmacological reactivity in good correlation with clinical physiopathology. In the rat, after unilateral lesion of the cerebellum, there is a postural asymmetry of the hind paws. This asymmetry may persist, even after spinal section, if the animal has passed a sufficiently long time in this position.
This time, which is called the spinal fixation time, is 45 minutes under the experimental conditions applied here.
On the other hand, if the spinal section is performed before the expiry of this period of time, for example 35 minutes after the onset of the asymmetry, the latter disappears.
No animal treated with placebos retains asymmetry under these conditions.
Inversely, any product which allows the rats to retain the asymmetry (thus effecting spinal fixation) when the spinal section is performed after 35 minutes, is considered to be active.
The compounds were all tested at a dosage of […]. The minimum active doses were not sought, except for compound No. 1 and for piracetam. […] By "number of animals" is to be understood the number of animals which responded positively to the test, in relation to the number of animals tested at the indicated dose: […]

[3] = active avoidance test (memory retention; paw withdrawal reaction threshold); assay type: in vivo, rat; settings: for minimal effective dose: sc
Description: The pressure at which the withdrawal reaction takes place is called the reaction threshold. This threshold is expressed by the figure read on a scale graduated in cm of the apparatus used (Analgesy-meter Ugo Basile, Milan) and thus corresponds to the minimum pressure which brings about withdrawal when applied to the animal's paw.

[4] = Toxicity when administered intravenously or orally (LD50); settings: in vivo, rat
Description: Furthermore, in the rat, the compounds tested also have a low toxicity when administered intravenously or orally, as shown by the results given in the following Table V: […]

[5] = Protection against aggressions of the hypoxic type (mortality induced by oxydipentonium chloride); assay type: in vivo, mice; settings: Mus musculus, ip, 1 h, read-out: Proportion of survivors, Animals treated
Procedure: Protection against aggressions of the hypoxic type was shown by a reduction of mortality induced by a curarizer, the action time of which is short, namely oxydipentonium chloride (Brevatonal). At the doses used, this curarizer brings about respiratory depression which, in turn, gives rise to a hypoxi-hypercapnic syndrome.
A compound capable of protecting the brain during this short period of hypoxia ensures survival. The compounds are administered to groups of 10 mice one hour before the injection of the curarizer. At the same time, a control group of 10 mice received physiological salt solution before the curarizer. This test has also been developed in our laboratories (see S. LEVIS et al., Arch.Int.Pharmacodyn.Therap.93, (1953,no. 1), 46-54).

[6] = ip, 35 min, rat, intraperitoneal, 0.32 mM/kg, read-out: Number of animals which responded positively to the test, in relation to the number of animals tested (converted)
[7] = rat, subcutaneous, tested 24 hours later, read-out: Active dose mM/kg (minimum dose lowering the stimulus below 11 graduations; mM = millimole)
[8] = rat, subcutaneous, tested 24 hours later, read-out: Active dose mg/kg (minimum dose lowering the stimulus below 11 graduations)
[9] = Rattus norvegicus, ip, read-out: Active dose mM/kg (minimum active dose)
[10] = Rattus norvegicus, ip, read-out: Active dose mg/kg (minimum active dose)
[11] = iv, i.v., read-out: LD50 mg/kg (rat)
[12] = iv, i.v., read-out: LD50 - mM/kg
[13] = po, per os, read-out: LD50 mg/kg (rat)
[14] = po, per os, read-out: LD50 - mM/kg

CC1CCN(CNC(=O)NCN2CCC(C)C2=O)C1=O (stereo not shown) [compound 34, 1,3-bis[(3-methyl-2-oxo-1-pyrrolidino)methyl]-urea]
Dose mM/kg - mouse (dose which brings about the death of one animal out of eight in Irwin's test) [1]: > 6 mM/kg | Dose mg/kg (dose which brings about the death of one animal out of eight in Irwin's test) [1]: > 1692 mg/kg | responders at 320 µM, 320 µmol/kg [2, 6]: 50%

O=C1CCC(c2ccc(Cl)cc2)CN1CNC(=S)NCN1CC(c2ccc(Cl)cc2)CCC1=O (stereo not shown) [compound 24, 1,3-bis[(5-p-chlorophenyl-2-oxo-piperidino)methyl]-2-thiourea]
Dose mM/kg - mouse (dose which brings about the death of one animal out of eight in Irwin's test) [1]: > 3 mM/kg | Dose mg/kg (dose which brings about the death of one animal out of eight in Irwin's test) [1]: > 1039 mg/kg | responders at 320 µM, 320 µmol/kg [2, 6]: 42.9%

O=C(NCN1CCCCCC1=O)NCN1CCCCCC1=O [Compound No. 4, 1,3-bis[(hexahydro-2-oxo-1H-azepin-1-yl)methyl]-urea]
Dose mM/kg - mouse (dose which brings about the death of one animal out of eight in Irwin's test) [1]: 3 mM/kg | Dose mg/kg (dose which brings about the death of one animal out of eight in Irwin's test) [1]: 930 mg/kg | responders at 320 µM, 320 µmol/kg [2, 6]: 66.7% | minimal effective dose [3, 7]: 0.005 µmol/kg | minimal effective dose [3, 8]: 0.0015 mg/kg

CC1CCC(=O)N1CNC(=O)NCN1C(=O)CCC1C (stereo not shown) [Compound No. 8, 1,3-bis[(5-methyl-2-oxo-pyrrolidino)methyl]-urea]
Dose mM/kg - mouse (dose which brings about the death of one animal out of eight in Irwin's test) [1]: > 3 mM/kg | Dose mg/kg (dose which brings about the death of one animal out of eight in Irwin's test) [1]: > 746 mg/kg | responders at 320 µM, 320 µmol/kg [2, 6]: 57.1% | minimal effective dose [3, 7]: 5 µmol/kg | minimal effective dose [3, 8]: 1.41 mg/kg

CC1C(=O)N(CNC(=O)NCN2CC(c3ccc(Cl)cc3)C(C)C2=O)CC1c1ccc(Cl)cc1 (stereo not shown) [Compound No. 7, 1,3-bis[(4-p-chlorophenyl-3-methyl-2-oxo-pyrrolidino)methyl]-urea]
Dose mM/kg - mouse (dose which brings about the death of one animal out of eight in Irwin's test) [1]: > 3 mM/kg | Dose mg/kg (dose which brings about the death of one animal out of eight in Irwin's test) [1]: > 1509 mg/kg | responders at 320 µM, 320 µmol/kg [2, 6]: 66.7% | minimal effective dose [3, 7]: 5 µmol/kg | minimal effective dose [3, 8]: 1.01 mg/kg

O=C(NCCN1CCCC1=O)NCCN1CCCC1=O [compound 20, 1,3-bis[2-(2-oxo-pyrrolidino)ethyl]-urea]
Dose mM/kg - mouse (dose which brings about the death of one animal out of eight in Irwin's test) [1]: > 3 mM/kg | Dose mg/kg (dose which brings about the death of one animal out of eight in Irwin's test) [1]: > 846 mg/kg | responders at 320 µM, 320 µmol/kg [2, 6]: 42.9% | minimal effective dose [3, 7]: 0.05 µmol/kg | minimal effective dose [3, 8]: 0.014 mg/kg

NC(=O)CN1CCCC1=O [piracetam, 2-oxo-1-pyrrolidineacetamide, reference compound]
responders at 320 µM, 320 µmol/kg ([2]; Rattus norvegicus, ip, 35 min, read-out: Number of animals which responded positively to the test, in relation to the number of animals tested): 55.6% | minimal effective dose [2, 9]: 320 µmol/kg | minimal effective dose [2, 10]: 45 mg/kg | LD50 [4, 11]: > 8000 mg/kg | LD50 [4, 12]: > 56000 µmol/kg | LD50 [4, 13]: > 10000 mg/kg | LD50 [4, 14]: > 70000 µmol/kg | minimal effective dose ([3]; Rattus norvegicus, 24 h, read-out: Active dose mM/kg (minimum dose lowering the stimulus below 11 graduations; mM = millimole)): 2.5 µmol/kg | minimal effective dose ([3]; Rattus norvegicus, 24 h, read-out: Active dose mg/kg (minimum dose lowering the stimulus below 11 graduations)): 3.5 mg/kg | degree of retention ([3]; rat, compared with control animals): significant degree of retention | responders at 320 µM, 320 µmol/kg [5]: 10% | responders at 142 mg/kg [5]: 40% | responders at 454 mg/kg ([5]; mice, intraperitoneal, 454 mg/kg (3.2 mM/kg), one hour before the curarizer, control animals 1/10): 80%

O=C(NCCCN1CCCC1=O)NCCCN1CCCC1=O [compound 23, 1,3-bis[3-(2-oxo-pyrrolidino)propyl]-urea]
Dose mM/kg - mouse (dose which brings about the death of one animal out of eight in Irwin's test) [1]: > 3 mM/kg | Dose mg/kg (dose which brings about the death of one animal out of eight in Irwin's test) [1]: 931.2 mg/kg | responders at 320 µM, 320 µmol/kg [2, 6]: 50%

O=C(NCN1CCCC1=O)NCN1CCCC1=O [Compound No. 1, 1,3-bis[(2-oxo-pyrrolidino)methyl]-urea]
Dose mM/kg - mouse (dose which brings about the death of one animal out of eight in Irwin's test) [1]: > 6 mM/kg | Dose mg/kg (dose which brings about the death of one animal out of eight in Irwin's test) [1]: > 1530 mg/kg | minimal effective dose [2, 9]: 100 µmol/kg | minimal effective dose [2, 10]: 25 mg/kg | responders at 100 µM, 25 mg/kg ([2]; ip, 35 min, rat, intraperitoneal, 0.1 mM/kg (25.0 mg/kg), read-out: Number of animals which responded positively to the test, in relation to the number of animals tested (converted)): 63.6% | activity relative to piracetam (spinal fixation time) ([2]; rat, intraperitoneal): more active than piracetam | LD50 [4, 11]: > 5600 mg/kg | LD50 [4, 12]: > 22000 µmol/kg | LD50 [4, 13]: > 10000 mg/kg | LD50 [4, 14]: > 39000 µmol/kg | minimal effective dose [3, 7]: 0.01 µmol/kg | minimal effective dose [3, 8]: 0.0025 mg/kg | responders at 32 µM, 32 µmol/kg [5]: 70% | responders at 100 µM, 100 µmol/kg [5]: 60% | responders at 2.5 mg/kg [5]: 33.3%

CC(NC(=O)NC(C)N1CCCC1=O)N1CCCC1=O (stereo not shown) [Compound No. 11, 1,3-bis[1-(2-oxo-pyrrolidino)ethyl]-urea]
Dose mM/kg - mouse (dose which brings about the death of one animal out of eight in Irwin's test) [1]: > 3 mM/kg | Dose mg/kg (dose which brings about the death of one animal out of eight in Irwin's test) [1]: > 846 mg/kg | minimal effective dose [3, 7]: 0.005 µmol/kg | minimal effective dose [3, 8]: 0.0014 mg/kg | responders at 32 µM, 32 µmol/kg ([5]; mice, intraperitoneal, 0.032 mM/kg, one hour before the curarizer, control animals 3/20 (compound 1), 1/10 (compound 11)): 70%

CCC(CNC(=O)NCC(CC)N1CCCC1=O)N1CCCC1=O (stereo not shown) [compound 22]
Dose mM/kg - mouse (dose which brings about the death of one animal out of eight in Irwin's test) [1]: > 3 mM/kg | Dose mg/kg (dose which brings about the death of one animal out of eight in Irwin's test) [1]: > 1014 mg/kg | responders at 320 µM, 320 µmol/kg [2, 6]: 71.4% | minimal effective dose [3, 7]: 0.02 µmol/kg | minimal effective dose [3, 8]: 0.0067 mg/kg
